Test results as given in US20260152468A1, “NOVEL CERAMIDE, PREPARATION METHOD THEREFOR, AND USE THEREOF” (SHENZHEN DIKEMAN BIOTECHNOLOGY CO., LTD., priority 2022, published 2026).

Assays:
[1] = system: AQP3 (aquaporin 3) expression in HaCat cells; assay: Moisturizing efficacy by AQP3 cell assay; assay type: cell-based, human; conditions: 2.5 mmol/L
Description: Aquaporin 3 (AQP3) is a transporter factor responsible for transport of water, glycerol and urea on cell membrane, which is mainly expressed in keratinocytes and skin fibroblasts. AQP3 is not only involved in skin hydration and barrier function, but also plays an important role in skin damage, repair and healing, and is an important guarantee for maintenance of normal skin morphology and function.
The HaCat cells were seeded in a 96-well plate at a density of 1×10^4 cells/well and placed in an incubator overnight to allow cell adhesion. After 24 hours of incubation, the supernatant was discarded, and 100 μL of samples (i.e., the product obtained in Example 1) at different concentrations diluted with DMEM medium and DMEM medium free of the samples as a negative control group were added into the plate, each group in triplicate, followed by incubating under an atmosphere of 5% CO2 expressed by mass fraction at 37° C. At 2 hours after administration, […] LPS was added into both lipopolysaccharide model groups and experimental groups and then co-incubated for 24 hours. After completing the reaction, 50 μL of the cell supernatant was taken and detected for the AQP3 gene expression in the cells using a AQP3 assay kit.

[2] = system: interleukin-6 (IL-6) cytokine expression in B16 murine melanoma cells; assay: Anti-inflammatory repair efficacy, LPS-induced cell assay (IL-6 ELISA kit); assay type: cell-based; conditions: 1 mmol/L
Description: B16 murine melanoma cells were seeded in a 96-well plate at a cell density of 1×10^4 cells/well and placed in an incubator overnight to allow cell adhesion. After 24 hours of incubation, the supernatant was discarded, and 100 μL of samples (i.e., the product obtained in Example 1) at different concentrations diluted with DMEM medium and DMEM culture medium free of the samples as a negative control group were added into the cells, each group in triplicate, followed by incubating under an atmosphere of 5% CO2 expressed by mass fraction at 37° C. At 2 hours after administration, 10 μg/mL LPS was added into both lipopolysaccharide model groups and experimental groups and then co-incubated for 24 hours. After the reaction, 50 μL of the cell supernatant was taken and detected for IL-6 gene expression using a IL-6 ELISA kit.

[3] = system: human keratinocytes (HaCaT) cells; assay: Cell proliferation and viability by MTT assay; assay type: cell-based
Description: Cell proliferation and viability as detected by methylthiazolyldiphenyl-tetrazoliun bromide (MTT) assay: human keratinocytes (HaCaT) cells were seed in a 96-well plate at a cell density of 1×10^4 cells/well and placed in an incubator overnight. After 24 hours of incubation, the supernatant was discarded and 100 μL of culture medium containing samples (i.e., the product obtained in Example 1) at different concentrations or blank control (culture medium only) was added into the cells, and incubated for additional 24 hours, followed by removing the culture medium, adding 100 μL of MTT to each well, measuring the absorbance at 450 nm, and calculating the cell viability as: Cell viability=Adosing/Ablank×100%.

Substance | increase of expression level of AQP3, comparison (FIG. 8) [1] | inhibition of expression of IL-6 inflammatory factors, comparison (FIG. 5) [2] | abilities of cell healing and tissue-repairing (cell proliferation and viability assay, FIGS. 1-3) [3]
ceramide 3B | effectively increase the expression level of AQP3 | effectively inhibit the expression of IL-6 inflammatory factors | relatively good abilities of cell healing and tissue-repairing
ceramide 3 | effectively increase the expression level of AQP3 | effectively inhibit the expression of IL-6 inflammatory factors | –
